The values below come from ChEMBL document CHEMBL1177694, “Multivalent catanionic GalCer analogs derived from first generation dendrimeric phosphonic acids” (Bioorg Med Chem, 2010).

The IC50 is the concentration that inhibits the measured activity by half. Broadly, the CC50 is the concentration at which the toxic effect on the cells reaches its halfway point.

Data set [1] relates to Human immunodeficiency virus 1. In words: Antiviral activity against HIV1 LAI infected in human CEM-SS cells assessed as inhibition of viral replication after 5 days by MTT assay. The class given is functional, organism-based. Particulars: Human immunodeficiency virus 1, LAI, 120 h. A general note: Tetrazolium dyes change colour on reduction, which living cells bring about.

The nature of data set [2]: Cytotoxicity against human CEM-SS cells after 5 days by MTT assay. The class given is cell-based.
Data set [3] can be described thus: Therapeutic index, ratio of CC50 for human CEM-SS cells to IC50 for HIV1 LAI infected in human CEM-SS cells. The class given is cell-based. Conditions: CEM-SS cells (uninfected and infected with HIV1 LAI), read-out: Ratio CC50/IC50.

On to `CCCCCCCCCCCCCCCCNOC(CO)C(O)C(OC1OC(CO)C(O)C(O)C1O)C(O)CO.CCCCCCCCCCCCCCCCNOC(CO)C(O)C(OC1OC(CO)C(O)C(O)C1O)C(O)CO.CCCCCCCCCCCCCCCCNOC(CO)C(O)C(OC1OC(CO)C(O)C(O)C1O)C(O)CO.CCCCCCCCCCCCCCCCNOC(CO)C(O)C(OC1OC(CO)C(O)C(O)C1O)C(O)CO.CCCCCCCCCCCCCCCCNOC(CO)C(O)C(OC1OC(CO)C(O)C(O)C1O)C(O)CO.CCCCCCCCCCCCCCCCNOC(CO)C(O)C(OC1OC(CO)C(O)C(O)C1O)C(O)CO.CN(/N=C/c1ccc(OP2(Oc3ccc(/C=N/N(C)P(=S)(Oc4ccc(CCNC(=O)CP(=O)(O)O)cc4)Oc4ccc(CCNC(=O)CP(=O)(O)O)cc4)cc3)=NP(Oc3ccc(/C=N/N(C)P(=S)(Oc4ccc(CCNC(=O)CP(=O)(O)O)cc4)Oc4ccc(CCNC(=O)CP(=O)(O)O)cc4)cc3)(Oc3ccc(/C=N/N(C)P(=S)(Oc4ccc(CCNC(=O)CP(=O)(O)O)cc4)Oc4ccc(CCNC(=O)CP(=O)(O)O)cc4)cc3)=NP(Oc3ccc(/C=N/N(C)P(=S)(Oc4ccc(CCNC(=O)CP(=O)(O)O)cc4)Oc4ccc(CCNC(=O)CP(=O)(O)O)cc4)cc3)(Oc3ccc(/C=N/N(C)P(=S)(Oc4ccc(CCNC(=O)CP(=O)(O)O)cc4)Oc4ccc(CCNC(=O)CP(=O)(O)O)cc4)cc3)=N2)cc1)P(=S)(Oc1ccc(CCNC(=O)CP(=O)(O)O)cc1)Oc1ccc(CCNC(=O)CP(=O)(O)O)cc1`, for which the IC50 in data set [1] was found to be 400 nM. The compound also showed a CC50 at 120 h in data set [2] of 1900 nM. Also, in data set [3], the selectivity ratio worked out at 4.8.
In the same order, the values of `CCCC(C(=O)NCCc1ccc(OP(=S)(Oc2ccc(CCNC(=O)C(CCC)P(=O)(O)O)cc2)N(C)/N=C/c2ccc(OP3(Oc4ccc(/C=N/N(C)P(=S)(Oc5ccc(CCNC(=O)C(CCC)P(=O)(O)O)cc5)Oc5ccc(CCNC(=O)C(CCC)P(=O)(O)O)cc5)cc4)=NP(Oc4ccc(/C=N/N(C)P(=S)(Oc5ccc(CCNC(=O)C(CCC)P(=O)(O)O)cc5)Oc5ccc(CCNC(=O)C(CCC)P(=O)(O)O)cc5)cc4)(Oc4ccc(/C=N/N(C)P(=S)(Oc5ccc(CCNC(=O)C(CCC)P(=O)(O)O)cc5)Oc5ccc(CCNC(=O)C(CCC)P(=O)(O)O)cc5)cc4)=NP(Oc4ccc(/C=N/N(C)P(=S)(Oc5ccc(CCNC(=O)C(CCC)P(=O)(O)O)cc5)Oc5ccc(CCNC(=O)C(CCC)P(=O)(O)O)cc5)cc4)(Oc4ccc(/C=N/N(C)P(=S)(Oc5ccc(CCNC(=O)C(CCC)P(=O)(O)O)cc5)Oc5ccc(CCNC(=O)C(CCC)P(=O)(O)O)cc5)cc4)=N3)cc2)cc1)P(=O)(O)O` (centres undefined) are 1500 nM, greater than 100000 nM and greater than 67.
For `CN(/N=C/c1ccc(OP2(Oc3ccc(/C=N/N(C)P(=S)(Oc4ccc(/C=C/P(=O)(O)O)cc4)Oc4ccc(/C=C/P(=O)(O)O)cc4)cc3)=NP(Oc3ccc(/C=N/N(C)P(=S)(Oc4ccc(/C=C/P(=O)(O)O)cc4)Oc4ccc(/C=C/P(=O)(O)O)cc4)cc3)(Oc3ccc(/C=N/N(C)P(=S)(Oc4ccc(/C=C/P(=O)(O)O)cc4)Oc4ccc(/C=C/P(=O)(O)O)cc4)cc3)=NP(Oc3ccc(/C=N/N(C)P(=S)(Oc4ccc(/C=C/P(=O)(O)O)cc4)Oc4ccc(/C=C/P(=O)(O)O)cc4)cc3)(Oc3ccc(/C=N/N(C)P(=S)(Oc4ccc(/C=C/P(=O)(O)O)cc4)Oc4ccc(/C=C/P(=O)(O)O)cc4)cc3)=N2)cc1)P(=S)(Oc1ccc(/C=C/P(=O)(O)O)cc1)Oc1ccc(/C=C/P(=O)(O)O)cc1`, in that order: 650 nM, greater than 100000 nM and greater than 153.
